Experimental data from paper PMC7619385 (ACS infectious diseases, 2025).
Like-named read-outs stand apart in the source and are kept apart here.

How the values were obtained:
LmxCLK1 = target: T1, LmxCLK1 (Leishmania mexicana, UniProt E9AMP2); assay: biochemical; format: binding
T1 sequence (E9AMP2 1-422): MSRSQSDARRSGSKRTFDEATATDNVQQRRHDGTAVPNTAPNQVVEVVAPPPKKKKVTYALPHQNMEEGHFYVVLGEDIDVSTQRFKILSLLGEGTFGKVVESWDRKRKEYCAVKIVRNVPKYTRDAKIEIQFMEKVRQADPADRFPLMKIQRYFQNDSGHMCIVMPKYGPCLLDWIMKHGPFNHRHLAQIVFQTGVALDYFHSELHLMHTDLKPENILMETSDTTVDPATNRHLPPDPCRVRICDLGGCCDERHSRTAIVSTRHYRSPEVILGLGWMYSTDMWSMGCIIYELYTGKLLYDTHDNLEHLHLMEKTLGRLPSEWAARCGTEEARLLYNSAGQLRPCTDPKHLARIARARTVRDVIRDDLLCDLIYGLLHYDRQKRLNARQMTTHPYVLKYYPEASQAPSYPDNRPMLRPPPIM

NLuc::LmxCLK1 = NLuc::LmxCLK1 (Leishmania mexicana, UniProt E9AMP2); assay: cell-based; format: cell-based; conditions: for Target occupancy Run 1 / Target occupancy Run 2 / Target occupancy Average: 10 µM compound, tracer SV366, promastigotes; for Target occupancy Average: mean of two experiments
Protocol: All compounds were tested at a fixed concentration of 10 µM to enable direct comparison of their target occupancy in live cells.
Serially diluted probes (5 µL) were added to 85 µL of cells in culture media or 85 µL of purified protein. Final well volumes were adjusted to 100 µL with sterile Opti-MEM™ I Reduced Serum Medium (Thermo-Scientific) – for wells containing cells; or Kinase Buffer - for wells containing purified protein. For tracer displacement assays, samples were prepared as above, but final volume was brought to 100 µL by addition of vehicle or serially-diluted test compounds. Final DMSO concentration in these assays was 1%. […] Light emissions at 460+10 nm (BRET donor) and at 610+20 nm (BRET acceptor) were sequentially recorded (integration time = 0.5 s, gain = 3600) using a luminometer (BMG LABTECH Clariostar or Biotek Synergy HT). BRET values are reported in milli-BRET (mBRET) units (mBU), obtained by dividing the acceptor luminescence by the donor luminescence and multiplying the result by a factor of 1,000. BRET values were converted to blank-corrected probe occupancies (%) according to equation [1]: (1) Probeoccupancy(%)=X−Z/Y−Z×100 where X = mBRET value in the presence of the test compound and the probe, Y = mBRET value in the presence of probe only, and Z = mBRET value in the absence of probe and test compound. […]

[1] = DSF, 10 µM compound, 2 µM LmxCLK1, Run 1
[2] = DSF, 10 µM compound, 2 µM LmxCLK1, Run 2
[3] = DSF, 10 µM compound, 2 µM LmxCLK1, mean of two runs
[4] = DSF, 10 µM compound, 2 µM LmxCLK1, Run 1, read-out: ΔTm Run 1
[5] = DSF, 10 µM compound, 2 µM LmxCLK1, Run 2, read-out: ΔTm Run 2
[6] = DSF, 10 µM compound, 2 µM LmxCLK1, mean of two runs, read-out: ΔTm Average
[7] = read-out: Target occupancy Average
[8] = read-out: Target occupancy Run 1
[9] = read-out: Target occupancy Run 2

| SMILES | ΔTm Run 1 (LmxCLK1; [1]) [°C] | ΔTm Run 2 (LmxCLK1; [2]) [°C] | ΔTm Average (LmxCLK1; [3]) [°C] | Target occupancy Run 1 (NLuc::LmxCLK1) [%] | Target occupancy Run 2 (NLuc::LmxCLK1) [%] | Target occupancy Average (NLuc::LmxCLK1) [%] | ΔTm at 10 µM (LmxCLK1; [4]) [°C] | ΔTm at 10 µM (LmxCLK1; [5]) [°C] | ΔTm at 10 µM (LmxCLK1; [6]) [°C] | receptor occupancy at 10 µM (NLuc::LmxCLK1; [7]) [%] | receptor occupancy at 10 µM (NLuc::LmxCLK1; [8]) [%] | receptor occupancy at 10 µM (NLuc::LmxCLK1; [9]) [%] | ΔTm Average (LmxCLK1) | ΔTm Run 1 (LmxCLK1) | ΔTm Run 2 (LmxCLK1) |
| --- | --- | --- | --- | --- | --- | --- | --- | --- | --- | --- | --- | --- | --- | --- | --- |
| CC(C)(C)c1nc(-c2cccc(NS(=O)(=O)c3c(F)cccc3F)c2F)c(-c2ccnc(N)n2)s1 [Dabrafenib (GSK2118436)] | -0.2 | 0.0 | -0.1 | 0.7 | -7.9 | -3.6 | – | – | – | – | – | – | – | – | – |
| COc1cc2ncnc(Nc3ccc(F)c(Cl)c3)c2cc1NC(=O)/C=C/CN1CCCCC1 [Dacomitinib (PF299804)] | -0.4 | -0.5 | -0.4 | 1.4 | -14.2 | -6.4 | – | – | – | – | – | – | – | – | – |
| Cc1nc(Nc2ncc(C(=O)Nc3c(C)cccc3Cl)s2)cc(N2CCN(CCO)CC2)n1 [Dasatinib] | – | – | – | – | – | – | -0.1 | -0.2 | -0.1 | -14.6 | 1.5 | -30.7 | – | – | – |
| Cn1cc(C2=C(c3cn(C4CCN(Cc5ccccn5)CC4)c4ccccc34)C(=O)NC2=O)c2ccccc21 [Enzastaurin (LY317615)] | 0.1 | -0.2 | 0.0 | 2.6 | -1.9 | 0.3 | – | – | – | – | – | – | – | – | – |
| C#Cc1cccc(Nc2ncnc3cc(OCCOC)c(OCCOC)cc23)c1.Cl [Erlotinib HCl (OSI-744)] | 0.1 | 0.1 | 0.1 | -0.1 | -7.3 | -3.7 | – | – | – | – | – | – | – | – | – |
| Cl.O=S(=O)(c1cccc2cnccc12)N1CCCNCC1 [Fasudil (HA-1077) HCl] | 0.9 | 0.6 | 0.7 | 6.9 | -10.2 | -1.7 | – | – | – | – | – | – | – | – | – |
| O=C(Nc1nc2cccc(-c3ccc(CN4CCS(=O)(=O)CC4)cc3)n2n1)C1CC1 [Filgotinib (GLPG0634)] | – | – | – | – | – | – | 0.2 | -0.4 | -0.1 | -15.3 | -9.1 | -21.6 | – | – | – |
| CN1CC[C@H](c2c(O)cc(O)c3c(=O)cc(-c4ccccc4Cl)oc23)[C@H](O)C1.Cl [Flavopiridol HCl] | 0.1 | -0.1 | 0.0 | 1.6 | -3.3 | -0.8 | – | – | – | – | – | – | – | – | – |
| COc1cc(Nc2ncc(F)c(Nc3ccc4c(n3)N(COP(=O)(O)O)C(=O)C(C)(C)O4)n2)cc(OC)c1OC [Fostamatinib (R788)] | 0.2 | 0.2 | 0.2 | 0.9 | -17.9 | -8.5 | – | – | – | – | – | – | – | – | – |
| CC(C)NC[C@@H](C(=O)N1CCN(c2ncnc3c2[C@H](C)C[C@H]3O)CC1)c1ccc(Cl)cc1 [GDC-0068] | – | – | – | – | – | – | 0.4 | 0 | 0.2 | 0.3 | 6 | -5.5 | – | – | – |
| CN(C)CCCn1cc(C2=C(c3c[nH]c4ccccc34)C(=O)NC2=O)c2ccccc21 [GF109203X] | – | – | – | -5.7 | -5.0 | -5.4 | – | – | – | – | – | – | 0.2 °C | 0.3 °C | 0.1 °C |
| CCNc1nc(Nc2cc(F)c(C(=O)N3CCOCC3)cc2OC)ncc1C(F)(F)F [GNE-7915] | – | – | – | – | – | – | -0.1 | -0.5 | -0.3 | -3.7 | -10.5 | 3.1 | – | – | – |
| CNc1nc(Nc2cnn([C@H]3CCN(C4COC4)C[C@@H]3F)c2Cl)ncc1C(F)(F)F [GNE-9605] | – | – | – | 3.1 | -5.2 | -1.1 | – | – | – | – | – | – | -0.4 | -0.2 | -0.5 |
| NC(=O)c1cccc(-c2cc(Nc3ccc(OC(F)(F)F)cc3)ncn2)c1 [GNF-2] | – | – | – | -8.5 | -14.2 | -11.3 | – | – | – | – | – | – | -0.2 | -0.2 | -0.3 |
| O=C(NCCO)c1cccc(-c2cc(Nc3ccc(OC(F)(F)F)cc3)ncn2)c1 [GNF-5] | – | – | – | -7.9 | -2.3 | -5.1 | – | – | – | – | – | – | -0.3 | -0.2 | -0.3 |
| O=C(O)c1ccc(-c2c[nH]c3ncc(-c4ccccc4)cc23)cc1C1CCCC1 [GSK650394] | – | – | – | – | – | – | -0.4 | -0.3 | -0.3 | -8.8 | -24.3 | 6.7 | – | – | – |
| O=C1NC(=O)/C(=C/c2ccc3nccc(-c4ccncc4)c3c2)S1 [GSK1059615] | – | – | – | – | – | – | 0.3 | -0.2 | 0 | -2.8 | -4.2 | -1.5 | – | – | – |
| Cc1c(Cn2c(C)nc3c(C(=O)O)cc(N4CCOCC4)cc32)cccc1C(F)(F)F [GSK2636771] | – | – | – | – | – | – | 0.2 | 0.1 | 0.1 | -2.2 | 2.9 | -7.3 | – | – | – |
| O=C1Nc2ccc(I)cc2/C1=C/c1cc(Br)c(O)c(Br)c1 [GW5074] | 0.0 | -0.4 | -0.2 | -7.5 | -6.2 | -6.8 | – | – | – | – | – | – | – | – | – |
